{
  "source": "paper PMC9181887",
  "about": "“In Vitro Antithrombotic, Hematological Toxicity, and Inhibitor Studies of Protocatechuic, Isovanillic, and p-Hydroxybenzoic Acids from Maclura tricuspidata (Carr.) Bur” (Molecules, 2022)",
  "system": "human platelet-poor plasma",
  "assay": "Recalcification time assay",
  "format": "biochemical",
  "experimental": "Figure 5 Effect of PA (A), IVA (B), and 4-HA (C) on recalcification time and plasma density. Human platelet-poor plasma was mixed with PA, IVA, and 4-HA dissolved in DMSO in 96-well plates and incubated for 10 min at 37 °C. Thereafter, 100 mM pre-warmed CaCl2 was added to the mixture and absorbance was taken every 60 s at 650 nm for 30 min in a microplate reader. The plasma density was presented as the optical density at 650 nm after 30 min. The half time (s) was presented as reaching a half-maximum absorbance value. NC1, plasma only; NC2, plasma treated with CaCl2; PC, positive control group (1 U heparin); PA1–20, 1–20 μg of PA treated; IVA1–20, 1–20 μg of IVA treated; 4-HA1–20, 1–20 μg of 4-HA treated.\nRecalcification time was measured in a 96-well plate, according to a previously described method, with slight modifications. First, 50 μL of human platelet-poor plasma was mixed with 50 μL of the compounds, vehicle as NC2, or 1 U heparin as PC, and incubated at 37 °C for 10 min. Thereafter, 100 mM pre-warmed CaCl2 was added to the mixture and absorbance was measured at 650 nm every 1 min for 30 min using a microplate reader. The plasma density was presented as the absorbance at 650 nm after 30 min. The half time was presented as reaching a half-maximum absorbance value.",
  "data": [
    {"substance": "heparin [reference compound]", "values": [
      {"measurement": "plasma coagulation for 1800 s", "setting": "1U", "result": "completely delayed"},
      {"measurement": "Absorbance after Reaction", "setting": "1 U heparin, 650 nm after 30 min, NC2 0.2094 ± 0.0305", "result": "0.0184 ± 0.0016"}
    ]}
  ]
}
